15 compounds from patent US11608335B2, “Somatostatin modulators and uses thereof” (CRINETICS PHARMACEUTICALS, INC., priority 2018, dated 2023) can be followed below.

The target in assay [1] is T1, human somatostatin receptor subtype 4 (Homo sapiens, UniProt P31391).
T1 construct: expressed in transfected cells
Nature of the assay: cAMP assay for hSST4R (inhibition of cAMP via human SST4 receptor). Format: cell-based. The conditions noted are these: from inhibition of cAMP via human SST5 receptor and human SST4 receptor. The source says: cAMP Assay Protocol hSST4R:

Assay [2] concerns the target human somatostatin receptor subtype 5 (Homo sapiens, UniProt P35346). Nature of the assay: cAMP assay for SST5R (inhibition of cAMP via human SST5 receptor). The conditions noted are these: for Fold selectivity for SST5 vs SST2: SST5 over SST2, class symbols.
Procedure: cAMP Assay Protocol for SST5R:
The cells are cultured at 37° C., 5% CO2 and 95% humidity. […] The cells are incubated for 20 minutes at 37° C. […] The cells are treated with 50 μL of lysis buffer (HRTF cAMP kit, Cisbio) for 30 minutes and then the lysate is diluted to 250 μL with assay buffer. The lysate is transferred to 384-well plates and cAMP detection and visualization antibodies are added and incubated for 1-24 hours at room temperature. The time-resolved fluorescent signal is read with a Tecan M1000Pro multiplate reader. The intracellular cAMP concentrations are calculated by regression to a standard curve and are plotted vs. the concentration of the compounds of the invention and the EC50 of the compounds are calculated using standard methods. All data manipulations are in GraphPad Prism v6 or v7.
Assay [3] concerns the target T2, human somatostatin receptor subtype 2 (Homo sapiens, UniProt P30874).
T2 construct: expressed in transfected cells
Nature of the assay: cAMP assay for SST2R (inhibition of cAMP via human SST2 receptor). Format: cell-based. To be noted: Table B, read-out: SST2 potency. From the text:
cAMP Assay Protocol for SST2R:

In assay [4] the target is T3, human somatostatin receptor subtype 3 (Homo sapiens, UniProt P32745).
T3 construct: expressed in transfected cells
Nature of the assay: cAMP assay for SST3R (inhibition of cAMP via human SST3 receptor). Format: cell-based. The conditions noted are these: from inhibition of cAMP via human SST5 receptor and human SST3 receptor. The source says: cAMP Assay Protocol for SST3R:

[5] abbreviates: read-out: SST5 potency, inhibition of cAMP via human SST5 receptor, Table B.

Like-named read-outs stand apart in the source and are kept apart here.

Sequence of human somatostatin receptor subtype 5 (P35346 whole entry): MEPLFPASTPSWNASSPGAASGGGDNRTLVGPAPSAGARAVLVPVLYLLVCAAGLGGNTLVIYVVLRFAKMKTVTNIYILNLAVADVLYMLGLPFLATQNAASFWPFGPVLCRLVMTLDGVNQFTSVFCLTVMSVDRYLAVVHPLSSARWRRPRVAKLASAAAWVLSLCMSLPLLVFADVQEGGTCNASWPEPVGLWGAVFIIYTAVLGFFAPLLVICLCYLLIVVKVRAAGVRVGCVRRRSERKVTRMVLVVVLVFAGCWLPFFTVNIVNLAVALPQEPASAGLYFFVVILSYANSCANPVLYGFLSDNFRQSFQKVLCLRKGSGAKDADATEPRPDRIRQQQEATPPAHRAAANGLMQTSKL
T2 sequence (P30874 whole entry): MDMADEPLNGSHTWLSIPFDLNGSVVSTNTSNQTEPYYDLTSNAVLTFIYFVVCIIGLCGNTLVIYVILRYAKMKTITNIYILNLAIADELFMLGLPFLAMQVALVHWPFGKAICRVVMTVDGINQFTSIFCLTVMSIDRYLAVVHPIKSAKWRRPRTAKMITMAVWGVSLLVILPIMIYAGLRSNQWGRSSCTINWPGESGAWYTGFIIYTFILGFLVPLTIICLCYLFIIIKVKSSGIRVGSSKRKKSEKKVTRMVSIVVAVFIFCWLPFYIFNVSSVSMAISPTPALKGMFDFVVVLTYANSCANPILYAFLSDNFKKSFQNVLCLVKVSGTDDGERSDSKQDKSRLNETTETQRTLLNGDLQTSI
T3 sequence (P32745 whole entry): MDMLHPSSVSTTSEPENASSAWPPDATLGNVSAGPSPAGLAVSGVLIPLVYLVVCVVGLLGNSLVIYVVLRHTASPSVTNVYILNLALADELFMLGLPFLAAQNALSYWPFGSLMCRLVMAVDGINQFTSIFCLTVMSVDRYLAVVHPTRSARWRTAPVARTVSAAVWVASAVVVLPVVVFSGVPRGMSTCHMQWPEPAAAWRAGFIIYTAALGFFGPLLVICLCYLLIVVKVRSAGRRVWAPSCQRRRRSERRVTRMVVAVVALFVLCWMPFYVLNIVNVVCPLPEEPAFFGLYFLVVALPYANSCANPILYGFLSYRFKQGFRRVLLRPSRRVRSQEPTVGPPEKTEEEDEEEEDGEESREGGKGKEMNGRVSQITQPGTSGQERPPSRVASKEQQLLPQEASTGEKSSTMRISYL
T1 sequence (P31391 whole entry): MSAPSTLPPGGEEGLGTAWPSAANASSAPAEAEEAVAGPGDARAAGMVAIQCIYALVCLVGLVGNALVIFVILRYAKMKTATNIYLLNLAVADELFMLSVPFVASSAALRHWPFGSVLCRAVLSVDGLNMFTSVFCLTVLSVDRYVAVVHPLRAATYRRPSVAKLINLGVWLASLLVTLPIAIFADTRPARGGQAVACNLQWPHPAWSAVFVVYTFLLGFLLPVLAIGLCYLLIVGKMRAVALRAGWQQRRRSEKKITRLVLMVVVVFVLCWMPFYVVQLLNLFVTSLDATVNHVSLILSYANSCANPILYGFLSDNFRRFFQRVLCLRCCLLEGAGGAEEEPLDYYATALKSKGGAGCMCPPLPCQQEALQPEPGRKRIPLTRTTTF

For `NCC1CN(c2c(-c3ccc4ccccc4c3)cncc2-c2nc3cc(F)cc(F)c3[nH]2)C1` [Compound 1-41, 1-{1-[3-(4,6-difluoro-1H-1,3-benzodiazol-2-yl)-5-(naphthalen-2-yl)pyridin-4-yl]azetidin-3-yl}methanamine], the “Fold selectivity for SST5 vs SST4” value in assay [1] worked out at 8.8 fold. This compound yielded an EC50 in assay [2] of 100 to 1000 nM.
Regarding `CCC(N)C1CN(c2c(-c3cc(C)cc(F)c3)cncc2-c2nc3cc(F)cc(F)c3[nH]2)C1` (centres unmarked) [Compound 1-51, 1-{1-[3-(4,6-difluoro-1H-1,3-benzodiazol-2-yl)-5-(3-fluoro-5-methylphenyl)pyridin-4-yl]azetidin-3-y}propan-1-amine], the values for the EC50 in assay [3], in assay [2] and in assay [2] (setting [5]) were > 1000 nM, < 10 nM and < 10 nM, respectively. Besides, the “Fold selectivity for SST5 vs SST3” value in assay [4] turned out to be 200 fold. Further, the “Fold selectivity for SST5 vs SST4” value in assay [1] came out at 812 fold. For the same compound, the “Fold selectivity for SST5 vs SST2” value in assay [2] is on record as “+++ (+++=≥500)”.
For `CC(N)C1CN(c2c(-c3ccc(F)c(C#N)c3)cncc2-c2nc3cc(F)cc(F)c3[nH]2)C1` (centres unmarked) [Compound 1-65, 5-{4-[3-(1-aminoethyl)azetidin-1-yl]-5-(4,6-difluoro-1H-1,3-benzodiazol-2-yl)pyridin-3-yl}-2-fluorobenzonitrile], the EC50 in assay [3] was 100 to 1000 nM; in assay [2] it was < 10 nM; in assay [2] (setting [5]), < 10 nM. Further, the “Fold selectivity for SST5 vs SST3” value in assay [4] is recorded as >1000 fold. Also, in assay [1], the “Fold selectivity for SST5 vs SST4” value is listed as 384 fold. The “Fold selectivity for SST5 vs SST2” value in assay [2] was “+++ (+++=≥500)”.
Take `Cc1ccc(F)c2[nH]c(-c3cncc(-c4cc(F)cc(C#N)c4)c3N3CC[C@H](N)C3)nc12` [Compound 2-63, 3-{4-[(3S)-3-aminopyrrolidin-1-yl]-5-(7-fluoro-4-methyl-1H-1,3-benzodiazol-2-yl)pyridin-3-yl}-5-fluorobenzonitrile]: the EC50 in assay [3] is 100 to 1000 nM; in assay [2], < 10 nM; in assay [2] (setting [5]), < 10 nM. The “Fold selectivity for SST5 vs SST3” value in assay [4] is given as 43 fold. Also, the “Fold selectivity for SST5 vs SST4” value in assay [1] is on record as 18 fold. Besides, the “Fold selectivity for SST5 vs SST2” value in assay [2] is “+++ (+++=≥500)”.
Turning to `Cc1ccc(F)c2nc(-c3cncc(-c4cccc(C#N)c4)c3N3CC[C@H](N)C3)[nH]c12` [Compound 2-101, 3-{4-[(3S)-3-aminopyrrolidin-1-yl]-5-(7-fluoro-4-methyl-1H-1,3-benzodiazol-2-yl)pyridin-3-yl}benzonitrile], the EC50 in assay [3] is 100 to 1000 nM; in assay [2] it was < 10 nM; in assay [2] (setting [5]), < 10 nM. In addition, in assay [4], the “Fold selectivity for SST5 vs SST3” value stood at 42 fold. In assay [1], the “Fold selectivity for SST5 vs SST4” value is recorded as 11 fold. Also, the “Fold selectivity for SST5 vs SST2” value in assay [2] is reported as “+++ (+++=≥500)”.
`Cc1cccc2nc(-c3cncc(-c4ccnc(C#N)c4)c3N3CC[C@](C)(N)C3)[nH]c12` [Compound 2-145, 4-[(3S)-3-amino-3-methylpyrrolidin-1-yl]-5-(4-methyl-1H-1,3-benzodiazol-2-yl)-[3,4′-bipyridine]-2′-carbonitrile]: the EC50 is 100 to 1000 nM in assay [3], < 10 nM in assay [2] and < 10 nM in assay [2] (setting [5]). Further, the “Fold selectivity for SST5 vs SST4” value in assay [1] was 63 fold. For the same compound, the “Fold selectivity for SST5 vs SST2” value in assay [2] is “+++ (+++=≥500)”.
For `Cc1c(F)ccc2nc(-c3cncc(-c4ccnc(C#N)c4)c3N3CC[C@](C)(N)C3)[nH]c12` [Compound 2-164, 4-[(3S)-3-amino-3-methylpyrrolidin-1-yl]-5-(5-fluoro-4-methyl-1H-1,3-benzodiazol-2-yl)-[3,4′-bipyridine]-2′-carbonitrile], in assay [1], the “Fold selectivity for SST5 vs SST4” value is 323 fold. Moreover, the EC50 in assay [2] was < 10 nM.
For `Cc1ccnc2[nH]c(-c3cncc(-c4cc(F)c(F)c(C#N)c4)c3N3CC[C@](C)(N)C3)nc12` [Compound 2-165, 5-{4-[(3S)-3-amino-3-methylpyrrolidin-1-yl]-5-{7-methyl-1H-imidazo[4,5-b]pyridin-2-yl}pyridin-3-yl}-2,3-difluorobenzonitrile], the EC50 is 100 to 1000 nM in assay [3], < 10 nM in assay [2] and < 10 nM in assay [2] (setting [5]). In assay [1], the “Fold selectivity for SST5 vs SST4” value is 56 fold. In addition, the “Fold selectivity for SST5 vs SST2” value in assay [2] was “++ (++=100 to 499)”.
With `Cc1cc(-c2cncc(-c3nc4c(F)cccc4[nH]3)c2N2CC[C@H](N)C2)ccn1` [Compound 2-181, (3S)-1-[5-(4-fluoro-1H-1,3-benzodiazol-2-yl)-2′-methyl-[3,4′-bipyridin]-4-yl]pyrrolidin-3-amine], the EC50 in assay [3] was > 1000 nM; in assay [2], 10 to 100 nM; in assay [2] (setting [5]) it was 10 to 100 nM. For the same compound, the “Fold selectivity for SST5 vs SST2” value in assay [2] is given as “++ (++=100 to 499)”.
`N#Cc1cc(F)cc(-c2cncc(-c3nc4cc(F)cc(F)c4[nH]3)c2N2CC[C@H](N)C2)c1` [Compound 2-195, 3-{4-[(3S)-3-aminopyrrolidin-1-yl]-5-(4,6-difluoro-1H-1,3-benzodiazol-2-yl)pyridin-3-yl}-5-fluorobenzonitrile]: the EC50 is > 1000 nM in assay [3] and < 10 nM in assay [2] (setting [5]). Also, the “Fold selectivity for SST5 vs SST2” value in assay [2] was “+++ (+++=≥500)”.
Regarding `Cc1cc(F)cc(-c2cncc(-c3nc4ccc(Cl)cc4[nH]3)c2N2CC[C@H](N)C2)c1` [Compound 2-196, (3S)-1-[3-(6-chloro-1H-1,3-benzodiazol-2-yl)-5-(3-fluoro-5-methylphenyl)pyridin-4-yl]pyrrolidin-3-amine], the EC50 lay within 100 to 1000 nM in assay [3], 10 to 100 nM in assay [2] and 10 to 100 nM in assay [2] (setting [5]). In addition, the “Fold selectivity for SST5 vs SST2” value in assay [2] is reported as “+ (+=10 to 99)”.
On to `Cc1cc(F)cc(-c2cncc(-c3nc4cccc(Cl)c4[nH]3)c2N2CC[C@H](N)C2)c1` [Compound 2-197, (3S)-1-[3-(7-chloro-1H-1,3-benzodiazol-2-yl)-5-(3-fluoro-5-methylphenyl)pyridin-4-yl]pyrrolidin-3-amine], for which the EC50 was 100 to 1000 nM in assay [3], < 10 nM in assay [2] and < 10 nM in assay [2] (setting [5]). The “Fold selectivity for SST5 vs SST2” value in assay [2] is recorded as “++ (++=100 to 499)”.
For `N#Cc1cc(F)cc(-c2cncc(-c3nc4ccc(Cl)cc4[nH]3)c2N2CC[C@H](N)C2)c1` [Compound 2-198, 3-{4-[(3S)-3-aminopyrrolidin-1-yl]-5-(6-chloro-1H-1,3-benzodiazol-2-yl)pyridin-3-yl}-5-fluorobenzonitrile], the EC50 in assay [3] was > 1000 nM; in assay [2] it was < 10 nM; in assay [2] (setting [5]) it was < 10 nM. The “Fold selectivity for SST5 vs SST2” value in assay [2] is given as “++ (++=100 to 499)”.
On to `Cc1cccc(-c2cncc(-c3nc4cccc(C)c4[nH]3)c2N2CC[C@@H](N)C2)c1` [Compound 2-199, (3R)-1-[3-(4-methyl-1H-1,3-benzodiazol-2-yl)-5-(3-methylphenyl)pyridin-4-yl]pyrrolidin-3-amine], for which the figures for the EC50 in assay [3], in assay [2] and in assay [2] (setting [5]) were > 1000 nM, 100 to 1000 nM and 100 to 1000 nM, respectively. In addition, the “Fold selectivity for SST5 vs SST2” value in assay [2] is given as “+ (+=10 to 99)”.
As for `Cc1ccnc2nc(-c3cncc(-c4cc(F)cc(C#N)c4)c3N3CC[C@](C)(N)C3)[nH]c12` [Compound 2-202, 3-{4-[(3S)-3-amino-3-methylpyrrolidin-1-yl]-5-{7-methyl-1H-imidazo[4,5-b]pyridin-2-yl}pyridin-3-yl}-5-fluorobenzonitrile], the figures for the EC50 in assay [3], in assay [2] and in assay [2] (setting [5]) were 100 to 1000 nM, < 10 nM and < 10 nM, respectively. For the same compound, in assay [2], the “Fold selectivity for SST5 vs SST2” value is recorded as “+++ (+++=≥500)”.
